Where two headings read alike, the source gives them in different places.
Tests used:
rat mesangial cells [1] = experiment: DCFDA assay of ROS levels upon exogenous H2O2 treatment; assay type: cell-based; conditions: 200 μM H2O2, rat mesangial cells
Method: Dichlorofluorescin diacetate (DCFDA) assay measured ROS levels upon treatment with 200 μM H2O2.
DCFDA assay measured ROS levels upon treatment with 200 μM H2O2.

rat mesangial cells [2] = experiment: Inhibition of high glucose-induced ROS production in rat mesangial cells (DCFH-DA fluorescence); assay type: cell-based; conditions: for Concentration required for complete inhibition (ROS production reduced to normal levels): high glucose-induced ROS, rat mesangial cells; for IC50: 3 h, DCFH-DA 50 μM, mean of three experiments, s.d. of log IC50 in brackets; for Antioxidant activity against hyperglycemia-induced ROS generation (in words): concomitant treatment with compound plus high glucose for 3 h, DCFDA assay
Method: The inhibitory effects of the pyrrolomorpholine spiroketals on high glucose-induced oxidative stress were evaluated in rat mesangial cells (RMC). The rat mesangial cells, obtained from the American Type Culture Collection (CRL-2573), were cultured at 37° C. in Dulbecco's modified Eagle's medium (DMEM) containing 5.6 mM glucose (normal glucose), 10% fetal calf serum (FCS), nonessential amino acids, penicillin/streptomycin under a humidified atmosphere of 95% air and 5% CO2. Rat mesangial cells were seeded in 96-well plates approximately 24 hours before the start of all experiments. For more details on the antioxidant activity assays, see, e.g., Wang et al. Free Radical Biol. Med. 1999, 27, 612-616; Magalhães et al. Anal. Chim. Acta. 2008, 613, 1-19; Peng et al. Org. Lett. 2010, 12, 4932-4935; Hung et al. Am. J. Nephrol. 2009, 29, 192-202.
For each experiment, rat mesangial cells were incubated with pyrrolomorpholine spiroketal compound (0.01, 0.03, 0.1, 0.3, 1, 3, 10, 30, 100, 200 μM) or 1 mM N-acetyl cysteine (NAC, positive control) in the presence of either 5.6 mM (normal glucose, NG) or 30 mM (high glucose, HG) D-glucose for 3 h. RMC were then incubated with 50 μM dichloro-dihydro-fluorescein diacetate (DCFH-DA) for 45 min, and intracellular production of ROS was detected by 2′,7′-dichlorofluorescein (DCF) fluorescence (485 nm excitation, 530 emission) as measured by a microplate reader (SpectraMax M5/M5, Molecular Devices). Values are expressed as percentage of ROS inhibition, where fluorescence from untreated cells under normal glucose conditions was set at 0% and untreated cells under high glucose conditions was set at 100%.

rat mesangial cells [3] = conditions: cited from earlier work; for Antioxidant activity as reported (in words): high glucose-induced ROS, rat mesangial cells, literature
mesangial cells = conditions: through inhibition of NADPH oxidase, literature; cited from earlier work
[4] = Chemical reactivity towards reactive oxygen and nitrogen species; assay type: physicochemical; conditions: equimolar concentrations
[5] = cyclic voltametry, Aponick and coworkers; cited from earlier work
[6] = Rattus norvegicus, Mesangial cell, compound 0-200 μM, high (30 mM) glucose, N-acetyl-cysteine at 1 mM, ***p ≤ 0.001, read-out: Maximum % ROS Inhibition

## OC[C@H]1O[C@@]2(Cc3ccccc3CO2)C[C@@H]1O (single isomer, unassigned) [desformylbenzene 7]
Rat mesangial cells [1]
  Block of the direct effect of exogenous H2O2 on ROS levels: does not block
Rat mesangial cells [2]; [6]
  inhibition: 100%
Rat mesangial cells [2]
  Concentration required for complete inhibition (ROS production reduced to normal levels): 5 µM

## O=CC[C@H](O)[C@H](O)CO [2-deoxy-D-ribose]
Rat mesangial cells [2]; Rattus norvegicus, Mesangial cell, compound 0-200 μM, high (30 mM) glucose
  IC50: > 200 µM

## O=Cc1ccc2n1C[C@@]1(OC2)O[C@H](CO)[C@@H](O)[C@@H]1O.c1ccccc1 [Acortatarin B, acortatarin B]
Rat mesangial cells [3]
  Antioxidant activity as reported (in words): significantly attenuating high glucose-induced generation of ROS

## O=Cc1ccc2n1CC1(CC(O)C(CO)O1)OC2 [L-acortatarin A]
Rat mesangial cells [2]
  Antioxidant activity against hyperglycemia-induced ROS generation (in words): inactive

## CC(=O)N[C@@H](CS)C(=O)O [N-acetyl-cysteine]
Rat mesangial cells [2]; [6]
  inhibition at 1000 µM: 100%

## O=Cc1ccc2n1C[C@]1(C[C@H](O)[C@@H](CO)O1)OC2 [acortatarin A (1), acortatarin A]
Rat mesangial cells [1]
  Block of the direct effect of exogenous H2O2 on ROS levels: does not block
Mesangial cells
  Effect on high glucose-induced extracellular matrix production: prevent
Rat mesangial cells [2]; compound 0-200 μM, high (30 mM) glucose
  IC50: 4.9 µM
Rat mesangial cells [2]; compound 0-200 μM, high (30 mM) glucose, N-acetyl-cysteine at 1 mM, ***p ≤ 0.001
  Maximum % ROS Inhibition: 100%***
Rat mesangial cells [2]
  Antioxidant activity against hyperglycemia-induced ROS generation (in words): complete inhibition of ROS induction at higher concentrations
  Concentration required for complete inhibition (ROS production reduced to normal levels): 20 µM
Rat mesangial cells [3]
  Antioxidant activity as reported (in words): complete inhibition of ROS induction at higher concentrations
Rat mesangial cells [3]; listed as Acortatarin A
  Antioxidant activity as reported (in words): significantly attenuating high glucose-induced generation of ROS
Rat mesangial cells [3]; rat mesangial cell model, intracellular ROS levels, read-out: IC50 against hyperglycemia-induced oxidative stress, as recently reported
  IC50: 4.9 µM
[4]
  Reactivity to equimolar H2O2, OH radical and peroxynitrite: unreactive
[5]
  First oxidation potential: +1.74 V
  Second oxidation potential: 1.90 V

## O=Cc1cccc2c1C[C@]1(C[C@H](O)[C@@H](CO)O1)OC2 [formylbenzene 8, (2S,4S,5R)-4-hydroxy-5-(hydroxymethyl)-4,5-dihydro-3H-spiro[furan-2,3′-isochromane]-5′-carbaldehyde]
Rat mesangial cells [2]; [6]
  inhibition: 100%

Reference: patent publication US20210069082A1, “SPIROKETALS AND USES THEREOF” (Memorial Sloan-Kettering Cancer Center, priority 2017, published 2021)
